This is an account of results in ChEMBL document CHEMBL1128795, “N-(Quinuclidin-3-yl)-2-(1-methyl-1H-indol-3-yl)-2-oxo-acetamide: a high affinity 5-HT3 receptor partial agonist” (Bioorg Med Chem Lett, 1995).

The target of this test is T1, Muscarinic acetylcholine receptor M4 (Homo sapiens, UniProt P08173).
T1 sequence (P08173 whole entry): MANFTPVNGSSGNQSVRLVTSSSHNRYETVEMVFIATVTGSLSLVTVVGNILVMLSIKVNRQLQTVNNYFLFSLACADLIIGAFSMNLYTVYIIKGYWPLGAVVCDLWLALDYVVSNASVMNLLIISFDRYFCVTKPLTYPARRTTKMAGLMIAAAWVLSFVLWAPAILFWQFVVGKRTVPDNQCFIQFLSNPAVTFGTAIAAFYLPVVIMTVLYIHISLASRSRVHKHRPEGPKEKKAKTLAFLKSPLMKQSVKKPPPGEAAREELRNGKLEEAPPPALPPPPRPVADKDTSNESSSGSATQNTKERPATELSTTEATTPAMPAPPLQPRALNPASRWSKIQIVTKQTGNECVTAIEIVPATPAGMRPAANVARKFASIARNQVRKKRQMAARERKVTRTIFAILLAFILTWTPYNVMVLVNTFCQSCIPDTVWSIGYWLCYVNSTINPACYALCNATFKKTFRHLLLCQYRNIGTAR
Nature of the test: Binding affinity against Muscarinic acetylcholine receptor M4.

What is called Ki is a dissociation constant, usually derived from enzyme kinetics or from competition with a known ligand.

`Cn1cc(C(=O)C(=O)N[C@H]2CN3CCC2CC3)c2ccccc21` gave a Ki of 25.1 µM.
